This is an account of results in patent publication US20080267948A1, “Croos-B Structure Binding Compounds” (priority 2005, published 2008).

For experiment [1], the target named is T1, Hb-AGE (glucose-6-phosphate modified human haemoglobin) (Homo sapiens, UniProt P68871+P69905).
T1 construct: purchased Sigma-Aldrich H7379
The experiment is described as follows: ELISA binding of tPA to immobilized Hb-AGE, compounds co-incubated with tPA. The following applies: compound mixed with tPA, control without compound = 100. How it is done: The small compound library is depicted in Tables 4-5. […] Binding experiments were performed in single wells per compound, in a duplicate experiment. Binding data obtained with this duplicate experiment was averaged.
• 1. […] Coat buffer in control wells. • 2. wash three times with wash buffer • 3. Block all wells with 300 μl 0.5*recommended concentration Roche blocking reagent for 30 minutes at room temperature, with agitation • 4. wash twice • 5. […] Incubate for 30 minutes at room temperature, with agitation • 7. wash five times with TBS/0.1% Tween20 • 8. […] Incubate for 30 minutes at room temperature, with agitation • 10. wash five times with TBS/0.1% Tween20 • 11. Fill wells with 3000× diluted horse raddish peroxidase-labeled polyclonal rabbit anti-mouse antibody (RAMPO, DAKOCytomation) • 12. Incubate for 20 minutes at room temperature, with agitation • 13. Wash five times with TBS/0.1% Tween20 • 14. Wash twice with PBS • 15. Stain with 100 μl TMB, stop with 50 μl 10% H2SO4 • 16. Read absorbance at 450 nm

A further experiment concerns the target T2, Hb-AGE (Homo sapiens, UniProt P68871+P69905).
T2 construct: purchased Sigma-Aldrich H7379
The experiment is described as follows: ELISA binding of tPA to immobilized Hb-AGE after pre-incubation with compounds. The following applies: then tPA; for influence on tPA binding to immobilized Hb-AGE: Hb-AGE first overlayed with compound (concentration series); for % tPA binding (after compound incubation), HbAGE: immobilized Hb-AGE first exposed to 500 μg/ml compound, control = 100. How it is done: Compounds were now diluted 10× in PBS/0.1% Tween20 (500 μg/ml compound). […] With the selection, similar binding assays are performed with misfolded OVA and Aβ. Finally, concentration series of the selected compounds are used in the binding studies.

For experiment [2], the target named is T3, heat-denatured misfolded ovalbumin (DOVA) (Gallus gallus, UniProt P01012).
T3 construct: purchased Sigma A5503
T3 sequence (P01012 2-386 limits assumed): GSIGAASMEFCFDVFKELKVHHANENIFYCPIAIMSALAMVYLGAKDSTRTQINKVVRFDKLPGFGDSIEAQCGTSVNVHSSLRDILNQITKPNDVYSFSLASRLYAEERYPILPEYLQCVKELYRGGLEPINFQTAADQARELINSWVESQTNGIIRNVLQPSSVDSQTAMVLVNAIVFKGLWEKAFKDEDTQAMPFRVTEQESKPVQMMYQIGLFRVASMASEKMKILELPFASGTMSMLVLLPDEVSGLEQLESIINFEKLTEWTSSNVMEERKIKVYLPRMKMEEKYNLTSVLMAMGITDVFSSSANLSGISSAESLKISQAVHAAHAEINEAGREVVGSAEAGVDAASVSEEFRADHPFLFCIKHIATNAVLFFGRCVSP
The experiment is described as follows: ELISA binding of tPA to immobilized misfolded ovalbumin after pre-incubation with compounds. Details: species or system chicken. Conditions: for influence on tPA binding to immobilized misfolded OVA: misfolded OVA first overlayed with compound (concentration series), then tPA; for activity at 500 µg/mL: read-out: % tPA binding (after compound incubation), DOVA. The method, then: Compounds were now diluted 10× in PBS/0.1% Tween20 (500 μg/ml compound). […] With this approach a further selection of the compounds was achieved. Now, compounds that at least interact with HB-AGE are selected. With the selection, similar binding assays are performed with misfolded OVA and Aβ. Finally, concentration series of the selected compounds are used in the binding studies.

Another experiment concerns the target T4, Aβ (Homo sapiens, UniProt P05067, E693Q).
T4 construct: Lyophilized human amyloid-β(1-40) with E22Q mutation ‘Dutch type’; purchased Peptide facility, Dutch Cancer Institute, Amsterdam; host or cells: synthetic peptide
The experiment is described as follows: Binding of Aβ from solution to immobilized small compounds. Conditions: Aβ 100 μg/ml. The method, then: To test the ability of the twelve selected compounds (see Table 7) to bind to misfolded proteins, […] Greiner Microlon high binding plates, Nunc amino Immobilizer plates and Nunc Maxisorp plates. Compounds were coated in 100 mM NaHCO3 pH 9.6, 50 μl/well, 1 h at room temperature with agitation. As a control, wells were coated with buffer only. After blocking of the plates, wells were overlayed with solutions of 0.1/1/10 μg/ml Hb-AGE or 10/100 μg/ml Aβ, in binding buffer (PBS/0.1% Tween20). After washing, binding of Hb-AGE was assessed by overlaying wells with 1 μg/ml hybridoma antibody 4B5, which binds to glycations(^2), followed by RAMPO. Binding of Aβ was visualized using 500× diluted anti-Aβ antibodies (mouse antibody beta-amyloid Clone 6F/3D #M0872, lot 00003503, DAKOCytomation; β-amyloid (H-43) SC-9129, 200 μg/ml rabbit polyclonal IgG, Santa Cruz Biotechnology) and RAMPO/SWARPO in a 1:1 ratio. Finally, wells were overlayed with OPD/H2O2 solution, and H2SO4, before absorbance readings at 490 nm.

The conditions of experiment [3]: information found on the www, search completed Spring 2006, cited from earlier work.

“Also recorded” adds a separate entry of the source. Read-outs that look alike come from different tables or passages of the source.

T2 sequence (P69905 2-142 limits assumed): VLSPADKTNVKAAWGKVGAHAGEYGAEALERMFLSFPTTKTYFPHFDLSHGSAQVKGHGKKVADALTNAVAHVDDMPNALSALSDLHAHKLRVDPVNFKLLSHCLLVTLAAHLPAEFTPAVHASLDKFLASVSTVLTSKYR
T2 sequence (P68871 2-147 limits assumed): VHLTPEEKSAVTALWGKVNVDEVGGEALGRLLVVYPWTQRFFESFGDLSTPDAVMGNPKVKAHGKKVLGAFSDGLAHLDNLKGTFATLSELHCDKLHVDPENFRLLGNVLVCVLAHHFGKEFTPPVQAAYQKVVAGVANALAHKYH
T1 sequence (P69905 2-142 limits assumed): as the sequence (P69905 2-142 limits assumed) above
T1 sequence (P68871 2-147 limits assumed): as the sequence (P68871 2-147 limits assumed) above

Take `COc1cc2c(cc1O)C[C@H]1c3c(cc(OC)c(O)c3-2)CCN1C` [compound 202, Isoboldine]: in experiment [1], the “% tPA binding to Hb-AGE (co-incubation)” value is 250%. Also, on Hb-AGE, the “influence on tPA binding to immobilized Hb-AGE” value is listed as “Stimulated tPA binding to immobilized misfolded protein (Aβ,” and the “% tPA binding (after compound incubation), HbAGE” value was found to be 250%. Also, in experiment [2], the “influence on tPA binding to immobilized misfolded OVA” value is “Stimulated tPA binding to immobilized misfolded protein (Aβ,” and the activity at 500 µg/mL was 420%. The “Signal (a.u.)” value at Aβ (Nunc Maxisorp, coat 100 μg/ml) turned out to be 0.11 a.u. Moreover, on Aβ (Nunc amino Immobilizer, coat 1 μg/ml), the “Signal (a.u.)” value is given as 0.08 a.u. In experiment [3], the “Use or activity in vitro/in vivo” value was “potency to suppress LPS-induced proliferation in vitro; also recorded: potent antiplasmodial activity”.

Turning to `COc1cc2c(cc1OC)-c1c(O)c(OC)cc3c1[C@H](C2)N(C)CC3` [compound 201, Thaliporphine, thalicmidine], the “% tPA binding to Hb-AGE (co-incubation)” value in experiment [1] is reported as 30%. Also, on Hb-AGE, the “influence on tPA binding to immobilized Hb-AGE” value was “Stimulated tPA binding to immobilized misfolded protein (Hb-” and the “% tPA binding (after compound incubation), HbAGE” value is on record as 110%. Moreover, the activity at 500 µg/mL in experiment [2] was 400%. For the same compound, the “Use or activity in vitro/in vivo” value in experiment [3] (thalicmidine) was “increased survival rate of LPS-treated mice; also recorded: suppression of TNFα, NO. and O^2− production; also recorded: stimulated splenocyte proliferation induced by LPS; also recorded: potent vasoconstrictor”.

Regarding `O=c1oc2c(O)c(O)cc3c(=O)oc4c(O)c(O)cc1c4c23` [compound 117, Ellagic acid hydrate], the “influence on tPA binding to immobilized Hb-AGE” value at Hb-AGE is reported as “Stimulated tPA binding to immobilized misfolded protein (Hb-”. In experiment [2], the “influence on tPA binding to immobilized misfolded OVA” value is “Stimulated tPA binding to immobilized misfolded protein (Hb-”. For the same compound, the “Signal (a.u.)” value on Aβ (Nunc Maxisorp, coat 100 μg/ml) is listed as 0.054 a.u.
